Reference: patent publication US11339161B2, “Triazolo pyridines as modulators of gamma-secretase” (Boehringer Ingelheim International GmbH, priority 2017, dated 2022)
Where two headings read alike, the source gives them in different places.

Key:
[1] = test system: 15 kinases (ABL1, AURKA, CDK5/p35, CSF1R, FGFR1, FGFR2, FLT4, KDR, LYN B, MAP4K2, MAP4K4, PDGFRA, PTK2, RET, RPS6KB1); experiment: Z'-LYTE SelectScreen biochemical kinase panel: count of kinases inhibited over all 15 kinases tested; conditions: 10 μmolar compound concentration; [ATP] Km app; out of 15 kinases tested
FLT4 (VEGFR3) = FLT4 (VEGFR3) (Homo sapiens, UniProt P35916); experiment: Z'-LYTE SelectScreen biochemical kinase assay FLT4 (VEGFR3)
FLT4 (VEGFR3), sequence (P35916 25-1363): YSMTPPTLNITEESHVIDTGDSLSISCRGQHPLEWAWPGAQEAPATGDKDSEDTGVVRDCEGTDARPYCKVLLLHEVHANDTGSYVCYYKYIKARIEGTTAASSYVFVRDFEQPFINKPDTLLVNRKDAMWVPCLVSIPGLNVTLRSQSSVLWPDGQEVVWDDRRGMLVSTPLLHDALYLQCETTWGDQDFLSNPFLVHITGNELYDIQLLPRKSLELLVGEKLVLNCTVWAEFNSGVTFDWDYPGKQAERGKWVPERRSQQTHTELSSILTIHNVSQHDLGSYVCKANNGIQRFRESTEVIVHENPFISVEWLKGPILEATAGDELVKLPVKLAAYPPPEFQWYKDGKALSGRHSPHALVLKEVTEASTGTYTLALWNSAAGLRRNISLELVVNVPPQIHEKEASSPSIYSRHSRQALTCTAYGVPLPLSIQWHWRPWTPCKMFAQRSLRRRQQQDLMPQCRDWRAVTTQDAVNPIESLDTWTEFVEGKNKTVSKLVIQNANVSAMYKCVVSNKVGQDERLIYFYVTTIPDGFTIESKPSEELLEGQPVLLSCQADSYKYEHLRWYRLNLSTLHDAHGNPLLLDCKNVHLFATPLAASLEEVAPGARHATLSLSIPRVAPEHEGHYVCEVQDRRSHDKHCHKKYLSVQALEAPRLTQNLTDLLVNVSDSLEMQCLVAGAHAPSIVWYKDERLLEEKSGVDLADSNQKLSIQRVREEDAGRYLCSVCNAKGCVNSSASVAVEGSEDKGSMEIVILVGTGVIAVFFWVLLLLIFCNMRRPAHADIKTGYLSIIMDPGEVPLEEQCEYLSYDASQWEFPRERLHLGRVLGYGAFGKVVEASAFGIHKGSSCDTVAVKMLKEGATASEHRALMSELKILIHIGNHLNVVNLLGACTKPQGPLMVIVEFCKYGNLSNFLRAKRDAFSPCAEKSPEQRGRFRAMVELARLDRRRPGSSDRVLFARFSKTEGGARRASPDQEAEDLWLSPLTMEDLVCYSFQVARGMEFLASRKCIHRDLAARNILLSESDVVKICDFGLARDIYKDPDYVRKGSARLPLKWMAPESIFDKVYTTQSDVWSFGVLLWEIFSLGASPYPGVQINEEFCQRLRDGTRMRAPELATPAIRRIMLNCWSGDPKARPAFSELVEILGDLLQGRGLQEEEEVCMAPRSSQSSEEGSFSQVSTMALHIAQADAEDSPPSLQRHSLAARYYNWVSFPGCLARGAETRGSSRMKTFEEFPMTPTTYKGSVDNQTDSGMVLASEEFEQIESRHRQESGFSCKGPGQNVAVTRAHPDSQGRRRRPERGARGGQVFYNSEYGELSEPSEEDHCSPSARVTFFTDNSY
Excerpt: Thermo Fisher Scientific SelectScreen™ Biochemical Kinase Profiling Service Z′-LYTE™ Screening Protocol and Assay Conditions Assay Theory
The […] biochemical assay employs a fluorescence-based, coupled-enzyme format and is based on the differential sensitivity of phosphorylated and non-phosphorylated peptides to proteolytic cleavage. The peptide substrate is labeled with two fluorophores—one at each end—that make up a FRET pair. In the primary reaction, the kinase transfers the gamma-phosphate of ATP to a single tyrosine, serine or threonine residue in a synthetic FRET-peptide. In the secondary reaction, a site-specific protease recognizes and cleaves non-phosphorylated FRET-peptides. Phosphorylation of FRET-peptides suppresses cleavage by the Development Reagent. Cleavage disrupts FRET between the donor (i.e., coumarin) and acceptor (i.e., fluorescein) fluorophores on the FRET-peptide, whereas uncleaved, phosphorylated FRET-peptides maintain FRET. A ratiometric method, which calculates the ratio (Emission Ratio=Coumarin emission (445 nm)/Fluorescein emission (520 nm)) of donor emission to acceptor emission after excitation of the donor fluorophore at 400 nm, is used to quantitate reaction progress, as shown in the equation below. A significant benefit of this ratiometric method for quantitating reaction progress is the elimination of well-to-well variations in FRET-peptide concentration and signal intensities. As a result, the assay yields very high Z′-factor values (>0.7) at a low percent phosphorylation. Both cleaved and uncleaved FRET-peptides contribute to the fluorescence signals and therefore to the Emission Ratio. The extent of phosphorylation of the FRET-peptide can be calculated from the Emission Ratio. The Emission Ratio will remain low if the FRET-peptide is phosphorylated (i.e., no kinase inhibition) and will be high if the FRET-peptide is non-phosphorylated (i.e., kinase inhibition).
The Test Compounds are screened in 1% DMSO (final) in the well. For 10 point titrations, 3-fold serial dilutions are conducted from the starting concentration of the customer's choosing.
All Peptide/Kinase Mixtures are diluted to a 2× working concentration in the appropriate Kinase Buffer (see section Kinase Specific Assay Conditions for a complete description).
All ATP Solutions are diluted to a 4× working concentration in Kinase Buffer (50 mM HEPES pH 7.5, 0.01% BRIJ-35, 10 mM MgCl2, 1 mM EGTA). ATP Km apparent is previously determined using a Z″-LYTE assay.
The Development Reagent is diluted in Development Buffer (see section Kinase-Specific Assay Conditions—Direct and Cascade for a complete description).
Bar-coded Corning, low volume NBS, black 384-well plate (Corning Cat. #4514) • 1. 100 nL—100× Test Compound in 100% DMSO • 2. 2.4 μL—Kinase buffer • 3. 5 μL—2× Peptide/Kinase Mixture • 4. 2.5 μL—4×ATP Solution • 5. 30—second plate shake • 6. 60—minute Kinase Reaction incubation at room temperature • 7. 5 μL—Development Reagent Solution • 8. 30—second plate shake • 9. 60—minute Development Reaction incubation at room temperature • 10. Read on fluorescence plate reader and analyze the data Z′-LYTE Assay Controls
SelectScreen Kinase Profiling Service uses XLfit from IDBS. The dose response curve is curve fit to model number 205 (sigmoidal dose-response model).
The 2×FLT4 (VEGFR3)/Tyr 04 mixture is prepared in 50 mM HEPES pH 7.5, 0.01% BRIJ-35, 10 mM MgCl2, 4 mM MnCl2, 1 mM EGTA, 2 mM DTT. The final 10 μL Kinase Reaction consists of 2-10.5 ng FLT4 (VEGFR3) and 2 μM Tyr 04 in 50 mM HEPES pH 7.5, 0.01% BRIJ-35, 10 mM MgCl2, 2 mM MnCl2, 1 mM EGTA, 1 mM DTT. After the 1 hour Kinase Reaction incubation, 5 μL of a 1:64 dilution of Development Reagent B is added.

panel of 15 kinases = experiment: Z'-LYTE SelectScreen kinase panel: number of kinases with <40% inhibition; format: biochemical; conditions: of 15 kinases tested; 10 μmolar compound; ATP at Km app
[2] = 10 μmolar compound concentration, ATP at Km app, read-out: FLT4 (VEGFR3) inhibition
[3] = read-out: % Inhibition mean FLT4 (VEGFR3)

Row | No. of kinases with >80% inhibition [1] | inhibition at 10 µM (FLT4 (VEGFR3); [2]) [%] | inhibition at 10 µM (FLT4 (VEGFR3); read-out: % Inhibition mean) [%] | No. of kinases with <40% inhibition (panel of 15 kinases) | inhibition at 10 µM (FLT4 (VEGFR3); [3]) [%] | SMILES
1 | 15/15 | > 80 | 94 | – | – | Fc1cccc(-c2cccn3nc(Nc4ccc5[nH]cnc5c4)nc23)c1 [Cpd. 293 in WO09155551, reference compound]
2 | – | < 40 | – | 14/15 | 33 | CCn1ncc2c1CCC(Nc1nc3c(-c4ccc(C)nc4)cccn3n1)C2 (stereo not drawn) [Example 67, (1-Ethyl-4,5,6,7-tetrahydro-1H-indazol-5-yl)-[8-(6-methyl-pyridin-3-yl)-[1,2,4]triazolo[1,5-a]pyridine-2-yl]-amine]
3 | 15/15 | > 80 | 103 | – | – | CC1(C)C(=O)Nc2ccc(Nc3nc4c(-c5cccc(F)c5)cccn4n3)cc21 [Cpd. 263 in WO09155551, reference compound]
4 | – | < 40 | – | 15/15 | 16 | CCn1ncc2c1CCC(Nc1nc3c(-c4cccnc4OC)cccn3n1)C2 (stereo not drawn) [Example 69, (1-Ethyl-4,5,6,7-tetrahydro-1H-indazol-5-yl)-[8-(2-methoxy-pyridin-3-yl)-[1,2,4]triazolo[1,5-a]pyridine-2-yl]-amine]
5 | – | 40 to 80 | – | 8/15 | 50 | CCn1ncc2c1CCC(Nc1nc3c(-c4cncc(Cl)c4)cccn3n1)C2 (stereo not drawn) [Example 73, [8-(5-Chloro-pyridin-3-yl)-[1,2,4]triazolo[1,5-a]pyridine-2-yl]-(1-ethyl-4,5,6,7-tetrahydro-1H-indazol-5-yl)-amine]
6 | 15/15 | > 80 | 96 | – | – | CC1(C)NC(=O)c2ccc(Nc3nc4c(-c5cccc(F)c5)cccn4n3)cc21 [Cpd. 302 in WO09155551, reference compound]
7 | – | < 40 | – | 15/15 | 24 | CCn1ncc2c1CC[C@H](Nc1nc3c(-c4ccc(F)c(Cl)c4)cccn3n1)C2 [Example S-61, (S)-[8-(3-Chloro-4-fluoro-phenyl)-[1,2,4]triazolo[1,5-a]pyridine-2-yl]-(1-ethyl-4,5,6,7-tetrahydro-1H-indazol-5-yl)-amine]
8 | – | < 40 | – | 15/15 | 21 | CCn1ncc2c1CC[C@@H](Nc1nc3c(-c4ccc(F)c(Cl)c4)cccn3n1)C2 [Example R-61, (R)-[8-(3-Chloro-4-fluoro-phenyl)-[1,2,4]triazolo[1,5-a]pyridine-2-yl]-(1-ethyl-4,5,6,7-tetrahydro-1H-indazol-5-yl)-amine]
9 | – | < 40 | – | 12/15 | 32 | CCn1ncc2c1CCC(Nc1nc3c(-c4cccnc4)cccn3n1)C2 (stereo not drawn) [Example 63, (1-Ethyl-4,5,6,7-tetrahydro-1H-indazol-5-yl)-(8-pyridin-3-yl-[1,2,4]triazolo[1,5-a]pyridine-2-yl)-amine]
10 | – | < 40 | – | 11/15 | 28 | CCn1ncc2c1CCC(Nc1nc3c(-c4cncc(OC)c4)cccn3n1)C2 (stereo not drawn) [Example 70, (1-Ethyl-4,5,6,7-tetrahydro-1H-indazol-5-yl)-[8-(5-methoxy-pyridin-3-yl)-[1,2,4]triazolo[1,5-a]pyridine-2-yl]-amine]
11 | – | 40 to 80 | – | 11/15 | 52 | CCn1ncc2c1CCC(Nc1nc3c(-c4cnccc4OC)cccn3n1)C2 (stereo not drawn) [Example 68, (1-Ethyl-4,5,6,7-tetrahydro-1H-indazol-5-yl)-[8-(4-methoxy-pyridin-3-yl)-[1,2,4]triazolo[1,5-a]pyridine-2-yl]-amine]
